Measured values as given in patent US20130225430A1, “METHODS AND COMPOSITIONS FOR TREATMENT OF TOX-3 AND TFF-1 MEDIATED CANCER PATHOGENESIS” (CEDARS-SINAI MEDICAL CENTER, priority 2012, published 2013).

How the values were obtained:
[1] = system: ERα binding to ERE I, ERE II, and ERE III; settings: reported ER ChIP studies (ref. 46); cited from earlier work
[2] = system: TFF1 gene expression in MCF-7 cells; assay: TFF1 expression by quantitative RT-PCR in MCF-7 cells transfected with TOX3 or vector control; settings: for Effect on TFF1 expression compared to untreated control cells: MCF7 cells, normal culture conditions (not estrogen depleted); for TOX3 induction of TFF1 expression: resistant or sensitive to the drug: TOX3 transfected MCF7 cells, estrogen depleted medium, 36 hours
Method: Measurement of TFF1 induction by TOX3. […] MCF7 cells were transfected with a TOX3 expression vector or vector control, switched to estrogen depleted-medium after 8 hours in the presence or absence of the indicated drug, and analyzed by quantitative RT-PCR for TFF1 gene expression after an additional 36 hours in culture.

## C[C@]12CC[C@@H]3c4ccc(O)cc4C[C@@H](CCCCCCCCC[S+]([O-])CCCC(F)(F)C(F)(F)F)[C@H]3[C@@H]1CC[C@@H]2O (stereo partly drawn) [fulvestrant]
[1]
  ER binding at ERE I, II, and III sites upstream of TFF1 and TMPRSS3: residual binding
[2]
  Effect on TFF1 expression compared to untreated control cells: decrease
  TOX3 induction of TFF1 expression: resistant or sensitive to the drug: sensitive

## CC/C(=C(\c1ccccc1)c1ccc(OCCN(C)C)cc1)c1ccccc1 [tamoxifen]
[1]
  ER binding at ERE I, II, and III sites upstream of TFF1 and TMPRSS3: residual binding
[2]
  Effect on TFF1 expression compared to untreated control cells: decrease
  TOX3 induction of TFF1 expression: resistant or sensitive to the drug: resistant
